According to patent publication US20230098254A1, “SCUTELLARIAE RADIX COMPOUNDS AND USE THEREOF FOR INHIBITING OXIDATIVE PHOSPHORYLATION PATHWAY OF MITOCHONDRIA” (priority 2020, published 2023):

Tests used:
Type in all cases: cell-based
OCI-LY-19 = experiment: Cell viability CellTiter-Glo, OCI-LY-19; settings: Homo sapiens, OCI-LY19; OCI-LY-19, lymphoma
Experimental: (§1) Cell viability was measured by using the Promega CellTiter-Glo kit, the kit reflected cell viability by directly measuring intracellular ATP content. Different cancer cells were cultured in culture medium, and the 50% inhibitory concentration IC50 of the compound SJ2858 was measured by Promega CellTiter-Glo kit. The name source and culture condition of each tumor cell line were as follows:
Cell line OCI-LY-19 (DSMZ, code ACC-528) was cultured in 80-90% alpha-MEM medium containing 10-20% h.i. FBS (+P/S);

HCC1806 = experiment: Cell viability CellTiter-Glo, HCC1806; settings: Homo sapiens; HCC1806, breast cancer
Experimental: as §1
Cell line HCC1806 (ATCC, No. CRL-2335) was cultured in RPMI1640 medium containing 10% fetal bovine serum (+P/S);

NCI-H 1793 = experiment: Cell viability CellTiter-Glo, NCI-H 1793; settings: Homo sapiens, NCI-H1793; NCI-H 1793, lung cancer
Experimental: as §1
Cell line NCI-H1793 (ATCC, No. CRL-5896) was cultured in HITES medium containing 5% fetal bovine serum (+P/S);

A-375 = experiment: Cell viability CellTiter-Glo, A-375; settings: Homo sapiens; A-375, melanoma
Experimental: as §1
Cell line A-375 (ATCC, No. CRL-1619) was cultured in DMEM medium containing 10% fetal bovine serum (+P/S);

SF126 = experiment: Cell viability CellTiter-Glo, SF126; settings: Homo sapiens, SF-126; SF126, brain cancer
Experimental: as §1
Cell line SF126 (JCRB, No. IFO50286) was cultured in EMEM medium containing 10% fetal bovine serum (+P/S);

MIA PaCa-2 = experiment: Cell viability CellTiter-Glo, MIA PaCa-2; settings: Homo sapiens; MIA PaCa-2, pancreatic cancer
Experimental: as §1
Cell line MIA PaCa-2 (ATCC, No. CRL-1420) was cultured in DMEM medium containing 10% fetal bovine serum (+P/S);

OCI-AML-5 = experiment: Cell viability CellTiter-Glo, OCI-AML-5; settings: Homo sapiens; OCI-AML-5, leukemia
Experimental: as §1
Cell line OCI-AML-5 (DSMZ, No. ACC-247) was cultured in alpha-MEM medium containing 20% fetal bovine serum and 20% volume fraction of 5637 cell line adjusted medium (+P/S);

CHL-1 = experiment: Cell viability CellTiter-Glo, CHL-1; settings: Homo sapiens; CHL-1, melanoma
Experimental: as §1
Cell line CHL-1 (ATCC, No. CRL-9446) was cultured in DMEM medium containing 10% fetal bovine serum (+P/S);

U-87 MG = experiment: Cell viability CellTiter-Glo, U-87 MG; settings: Homo sapiens, brain cancer
Experimental: as §1
Cell line U-87MG (ATCC, No. HTB-14) was cultured in EMEM medium containing 10% fetal bovine serum (+P/S);

CCRF-CEM = experiment: Cell viability CellTiter-Glo, CCRF-CEM; settings: Homo sapiens, leukemia
Experimental: as §1
Cell line CCRF-CEM (ATCC, No. CCL-119) was cultured in RPMI1640 medium containing 10% fetal bovine serum (+P/S);

MDA-MB-453 = experiment: Cell viability CellTiter-Glo, MDA-MB-453; settings: Homo sapiens; MDA-MB-453, breast cancer
Experimental: as §1
Cell line MDA-MB-453 (ATCC, No. HTB-131) was cultured in Leibovitz's L-15 medium containing 10% fetal bovine serum (+P/S);

ATN-1 = experiment: Cell viability CellTiter-Glo, ATN-1; settings: Homo sapiens; ATN-1, leukemia
Experimental: as §1
Cell line ATN-1 (RIKEN, No. RBRC-RCB1440) was cultured in RPMI1640 medium containing 10% fetal bovine serum and 0.1 mM NEAA (+P/S);

OCI-AML-4 = experiment: Cell viability CellTiter-Glo, OCI-AML-4; settings: OCI-AML-4, leukemia
Experimental: as §1
Cell line OCI-AML-4 (DSMZ, No. ACC-729) was cultured in alpha-MEM medium containing 20% fetal bovine serum and 20% volume fraction of 5637 cell line adjusted medium (+P/S);

HCC15 = experiment: Cell viability CellTiter-Glo, HCC15; settings: HCC15, lung cancer
Experimental: as §1
Cell line HCC15 (KCLB, No. 70015) was cultured in RPMI1640 medium containing 10% fetal bovine serum (+P/S);

GB-1 = experiment: Cell viability CellTiter-Glo, GB-1; settings: Homo sapiens; GB-1, brain cancer
Experimental: as §1
Cell line GB-1 (JCRB, No. IFO50489) was cultured in DMEM medium containing 10% fetal bovine serum (+P/S);

C3A = experiment: Cell viability CellTiter-Glo, C3A; settings: Homo sapiens, liver cancer
Experimental: as §1
Cell line C3A (ATCC, No. CRL-10741) was cultured in EMEM medium containing 10% fetal bovine serum (+P/S);

DU 145 = experiment: Cell viability CellTiter-Glo, DU 145; settings: Homo sapiens; DU 145, prostate cancer
Experimental: as §1
Cell line DU 145 (ATCC, No. HTB-81) was cultured in EMEM medium containing 10% fetal bovine serum (+P/S);

BT-549 = experiment: Cell viability CellTiter-Glo, BT-549; settings: Homo sapiens; BT-549, breast cancer
Experimental: as §1
Cell line BT-549 (ATCC, No. HTB-122) was cultured in RPMI1640 medium containing 10% fetal bovine serum and 0.023 IU/ml human insulin (+P/S);

D283 Med = experiment: Cell viability CellTiter-Glo, D283 Med; settings: Homo sapiens, brain cancer
Experimental: as §1
Cell line D283 Med (ATCC, No. HTB-185) was cultured in EMEM medium containing 10% fetal bovine serum (+P/S);

SU-DHL-2 = experiment: Cell viability CellTiter-Glo, SU-DHL-2; settings: Homo sapiens; SU-DHL-2, lymphoma
Experimental: as §1
Cell line SU-DHL-2 (ATCC, No. CRL-2956) was cultured in RPMI1640 medium containing 10% fetal bovine serum (+P/S);

ACHN = experiment: Cell viability CellTiter-Glo, ACHN; settings: Homo sapiens, kidney cancer
Experimental: as §1
Cell line ACHN (ATCC, No. CRL-1611) was cultured in EMEM medium containing 10% fetal bovine serum (+P/S);

G-402 = experiment: Cell viability CellTiter-Glo, G-402; settings: Homo sapiens; G-402, kidney cancer
Experimental: as §1
Cell line G-402 (ATCC, No. CRL-1440) was cultured in McCoy's 5a medium containing 10% fetal bovine serum (+P/S);

Work on `O=c1cc(-c2ccccc2)oc2cc(O)c(O)c(O)c12` [Compound SJ2858, baicalein] yielded an IC50 (OCI-LY-19) of 52.3 µM, an IC50 (HCC1806) of 25.7 µM and an IC50 (NCI-H 1793) of 35.2 µM. It also gave an IC50 (A-375) of 10.6 µM, an IC50 (SF126) of 14 µM and an IC50 (MIA PaCa-2) of 19.7 µM. The IC50 (OCI-AML-5) was 45.1 µM, the IC50 (CHL-1) was 9.5 µM and the IC50 (U-87 MG) was 19 µM. It also gave an IC50 (CCRF-CEM) of 14.7 µM, an IC50 (MDA-MB-453) of 75.3 µM and an IC50 (ATN-1) of 25.4 µM. The IC50 (OCI-AML-4) was 24.6 µM, the IC50 (HCC15) was 18.9 µM and the IC50 (GB-1) was 12.4 µM. For the same compound, the IC50 (C3A) was 27 µM, the IC50 (DU 145) was 37.8 µM and the IC50 (BT-549) was 18.1 µM. It also gave an IC50 (D283 Med) of 12.9 µM, an IC50 (SU-DHL-2) of 6.2 µM and an IC50 (ACHN) of 17.7 µM. For the same compound, the IC50 (G-402) was 4.2 µM.
